Experimental data as given in the supplement of paper PMC10307832.

What was measured:
Experiment in all cases: relative viability (nuclei count vs DMSO), 5 days (fraction); higher = more cells survive
SW 900 = test system: SW 900
Summary of the method: (§1)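 Values are medians from duplicate plates. Each reflects relative viability, defined as the nuclei count of treated wells over that of vehicle wells. Lung cancer cell lines in 1536-well plates were pin-tool dosed one day after seeding with one drug alone or with a fixed anchor-drug dose plus five library-drug doses (not always all listed) in √10 steps, then fixed, stained and imaged at 4× after 5 days.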

NCI-H23 = test system: NCI-H23
Summary of the method: as §1

NCI-H2347 = test system: NCI-H2347
Summary of the method: as §1

ChaGo-K-1 = test system: ChaGo-K-1
Summary of the method: as §1

NCI-H2085 = test system: NCI-H2085
Summary of the method: as §1

201T = test system: 201T
Summary of the method: as §1

NCI-H1651 = test system: NCI-H1651
Summary of the method: as §1

NCI-H1975 = test system: NCI-H1975
Summary of the method: as §1

NCI-H1755 = test system: NCI-H1755
Summary of the method: as §1

NCI-H460 = test system: NCI-H460
Summary of the method: as §1

NCI-H1734 = test system: NCI-H1734
Summary of the method: as §1

NCI-H838 = test system: NCI-H838
Summary of the method: as §1

LXF-289 = test system: LXF-289
Summary of the method: as §1

NCI-H1437 = test system: NCI-H1437
Summary of the method: as §1

NCI-H2342 = test system: NCI-H2342
Summary of the method: as §1

CAL-12T = test system: CAL-12T
Summary of the method: as §1

H3255 = test system: H3255
Summary of the method: as §1

NCI-H441 = test system: NCI-H441
Summary of the method: as §1

HOP-62 = test system: HOP-62
Summary of the method: as §1

NCI-H2405 = test system: NCI-H2405
Summary of the method: as §1

EMC-BAC-2 = test system: EMC-BAC-2
Summary of the method: as §1

## C=C1C(=O)O[C@@H](CCCCCCCC)[C@@H]1C(=O)O [C-75] + NC(=O)Nc1cc(-c2cccc(F)c2)sc1C(=O)N[C@H]1CCCNC1 [AZD7762] (partner 0.2 µM)
SW 900; first compound 0.08 µM
  relative viability: 0.663
SW 900; first compound 0.253 µM
  relative viability: 0.69
SW 900; first compound 0.8 µM
  relative viability: 0.623
SW 900; first compound 2.53 µM
  relative viability: 0.576
SW 900; first compound 8 µM
  relative viability: 0.611
NCI-H23; first compound 0.08 µM
  relative viability: 0.255
NCI-H23; first compound 0.253 µM
  relative viability: 0.43
NCI-H23; first compound 0.8 µM
  relative viability: 0.263
NCI-H23; first compound 2.53 µM
  relative viability: 0.197
NCI-H23; first compound 8 µM
  relative viability: 0.376
NCI-H2347; first compound 0.08 µM
  relative viability: 0.725
NCI-H2347; first compound 0.253 µM
  relative viability: 1
NCI-H2347; first compound 0.8 µM
  relative viability: 0.715
NCI-H2347; first compound 2.53 µM
  relative viability: 0.705
NCI-H2347; first compound 8 µM
  relative viability: 0.665
ChaGo-K-1; first compound 0.08 µM
  relative viability: 0.857
ChaGo-K-1; first compound 0.253 µM
  relative viability: 0.921
ChaGo-K-1; first compound 0.8 µM
  relative viability: 0.777
ChaGo-K-1; first compound 2.53 µM
  relative viability: 0.603
ChaGo-K-1; first compound 8 µM
  relative viability: 0.812
NCI-H2085; first compound 0.08 µM
  relative viability: 0.95
NCI-H2085; first compound 0.253 µM
  relative viability: 1.09
NCI-H2085; first compound 0.8 µM
  relative viability: 0.919
NCI-H2085; first compound 2.53 µM
  relative viability: 0.943
NCI-H2085; first compound 8 µM
  relative viability: 1
201T; first compound 0.08 µM
  relative viability: 0.588
201T; first compound 0.253 µM
  relative viability: 0.687
201T; first compound 0.8 µM
  relative viability: 0.631
201T; first compound 2.53 µM
  relative viability: 0.507
201T; first compound 8 µM
  relative viability: 0.566
NCI-H1651; first compound 0.08 µM
  relative viability: 0.431
NCI-H1651; first compound 0.253 µM
  relative viability: 0.511
NCI-H1651; first compound 0.8 µM
  relative viability: 0.358
NCI-H1651; first compound 2.53 µM
  relative viability: 0.374
NCI-H1651; first compound 8 µM
  relative viability: 0.509
NCI-H1975; first compound 0.08 µM
  relative viability: 0.771
NCI-H1975; first compound 0.253 µM
  relative viability: 0.556
NCI-H1975; first compound 0.8 µM
  relative viability: 0.623
NCI-H1975; first compound 2.53 µM
  relative viability: 0.667
NCI-H1975; first compound 8 µM
  relative viability: 0.78
NCI-H1755; first compound 0.08 µM
  relative viability: 0.42
NCI-H1755; first compound 0.253 µM
  relative viability: 0.473
NCI-H1755; first compound 0.8 µM
  relative viability: 0.397
NCI-H1755; first compound 2.53 µM
  relative viability: 0.405
NCI-H1755; first compound 8 µM
  relative viability: 0.416
NCI-H460; first compound 0.08 µM
  relative viability: 0.685
NCI-H460; first compound 0.253 µM
  relative viability: 0.805
NCI-H460; first compound 0.8 µM
  relative viability: 0.595
NCI-H460; first compound 2.53 µM
  relative viability: 0.555
NCI-H460; first compound 8 µM
  relative viability: 0.706
NCI-H1734; first compound 0.08 µM
  relative viability: 0.562
NCI-H1734; first compound 0.253 µM
  relative viability: 0.587
NCI-H1734; first compound 0.8 µM
  relative viability: 0.488
NCI-H1734; first compound 2.53 µM
  relative viability: 0.278
NCI-H1734; first compound 8 µM
  relative viability: 0.664
NCI-H838; first compound 0.08 µM
  relative viability: 0.89
NCI-H838; first compound 0.253 µM
  relative viability: 0.752
NCI-H838; first compound 0.8 µM
  relative viability: 0.943
NCI-H838; first compound 2.53 µM
  relative viability: 0.865
NCI-H838; first compound 8 µM
  relative viability: 0.891
LXF-289; first compound 0.08 µM
  relative viability: 1.07
LXF-289; first compound 0.253 µM
  relative viability: 1.21
LXF-289; first compound 0.8 µM
  relative viability: 1.02
LXF-289; first compound 2.53 µM
  relative viability: 1.07
LXF-289; first compound 8 µM
  relative viability: 1.21
NCI-H1437; first compound 0.08 µM
  relative viability: 1.11
NCI-H1437; first compound 0.253 µM
  relative viability: 1.09
NCI-H1437; first compound 0.8 µM
  relative viability: 1.09
NCI-H1437; first compound 2.53 µM
  relative viability: 1.09
NCI-H1437; first compound 8 µM
  relative viability: 1.15
NCI-H2342; first compound 0.08 µM
  relative viability: 0.569
NCI-H2342; first compound 0.253 µM
  relative viability: 0.562
NCI-H2342; first compound 0.8 µM
  relative viability: 0.45
NCI-H2342; first compound 2.53 µM
  relative viability: 0.458
NCI-H2342; first compound 8 µM
  relative viability: 0.505
CAL-12T; first compound 0.08 µM
  relative viability: 0.683
CAL-12T; first compound 0.253 µM
  relative viability: 0.713
CAL-12T; first compound 0.8 µM
  relative viability: 0.586
CAL-12T; first compound 2.53 µM
  relative viability: 0.548
CAL-12T; first compound 8 µM
  relative viability: 0.64
H3255; first compound 0.08 µM
  relative viability: 0.847
H3255; first compound 0.253 µM
  relative viability: 0.893
H3255; first compound 0.8 µM
  relative viability: 0.774
H3255; first compound 2.53 µM
  relative viability: 0.885
H3255; first compound 8 µM
  relative viability: 0.865
NCI-H441; first compound 0.08 µM
  relative viability: 1.26
NCI-H441; first compound 0.253 µM
  relative viability: 1.3
NCI-H441; first compound 0.8 µM
  relative viability: 1.05
NCI-H441; first compound 8 µM
  relative viability: 1.06
HOP-62; first compound 0.08 µM
  relative viability: 0.592
HOP-62; first compound 0.253 µM
  relative viability: 1.09
HOP-62; first compound 0.8 µM
  relative viability: 0.522
HOP-62; first compound 2.53 µM
  relative viability: 0.657
HOP-62; first compound 8 µM
  relative viability: 0.91
NCI-H2405; first compound 0.08 µM
  relative viability: 0.689
NCI-H2405; first compound 0.253 µM
  relative viability: 0.4
NCI-H2405; first compound 0.8 µM
  relative viability: 0.831
NCI-H2405; first compound 2.53 µM
  relative viability: 0.67
NCI-H2405; first compound 8 µM
  relative viability: 0.764
EMC-BAC-2; first compound 0.08 µM
  relative viability: 1.1
EMC-BAC-2; first compound 0.253 µM
  relative viability: 1.04
EMC-BAC-2; first compound 0.8 µM
  relative viability: 1.06
EMC-BAC-2; first compound 2.53 µM
  relative viability: 0.887
EMC-BAC-2; first compound 8 µM
  relative viability: 1.07
